Patent US20260207535A1, “CRIBLAGE INHIBITEURS USP8” (COMMISSARIAT A L'ENERGIE ATOMIQUE ET AUX ENERGIES …, priority 2022, published 2026)

These compounds were tested on AtT-20 pituitary cells (assay: Inhibition of ACTH secretion in pituitary cells (ACTH EIA on supernatant)). Conditions: 25 μM, 24-hour treatment.
Format: cell-based, mouse
Procedure: ACTH release (percent comparison to DMSO control). Briefly, 12,500 AtT-20 cells per well were seeded in a 96-well plate. After 24 hours exposure, cells were treated with each compound at the indicated final concentration, or with DMSO alone (control condition compound solvent) or with corticotropin releasing factor (indicated CRF) at 100 nM. After a 24-hour treatment, cell supernatants were collected and stored at −80° C., prior to quantification of ACTH concentration using ACTH chemiluminescent EIA kit (Phoenix Pharmaceuticals, Inc.). Determination of ACTH concentrations was based on the best-fitting ACTH standard curve and P values were calculated using one-way ANOVA, using Prism 9 software (GraphPad Software, Inc.) ns (P=0.12). **P<0.002. ***P<0.001. All compounds were tested in technical triplicates. One representative experiment out of three is presented.
FIG. 4: illustrates a decrease of ACTH secretion by AtT-20 cells after 24-hour treatment of halogenated salicylanilides. 12,500 AtT-20 cells per well were seeded in a 96-well plate. […] After a 24-hour treatment, cell supernatants were collected and stored at −80° C., prior to quantification of ACTH concentration using ACTH chemiluminescent EIA kit (Phoenix Pharmaceuticals, Inc.). Determination of ACTH concentrations was based on the best-fitting ACTH standard curve and P values were calculated by ordinary one-way ANOVA using Prism 6 software (GraphPad Software, Inc), ns (not significant), **** P<0.0001. Compounds were tested in technical triplicates.
12,500 AtT-20 cells per well were seeded in a 96-well plate. After 24 hours, cells were treated with compounds (corresponding chemical formula are indicated in Table 1) at 25 μM final concentration, or with DMSO alone (compound solvent). After a 24-hour treatment, cell supernatants were collected and stored at −80° C., prior to quantification of ACTH concentration using ACTH chemiluminescent EIA kit (Phoenix Pharmaceuticals, Inc.). Determination of ACTH concentrations was based on the best-fitting ACTH standard curve and P values were calculated by ordinary one-way ANOVA using Prism 6 software (GraphPad Software, Inc), ns (not significant), *P<0.05, ***P<0,0001. Compounds were tested in technical triplicates.
Mouse AtT-20 pituitary cell line were used as a powerful and well-characterized model to monitor ACTH secretion using an enzyme immunoassay (EIA) kit.
Mouse AtT-20 cells were obtained from the American Type Culture Collection and maintained on DMEM containing 10% fetal bovine serum, 100 μg/mL streptomycin and 100 U/mL penicillin at 37° C. with 5% CO2 after recovery from long-term storage on liquid nitrogen-vapor phase.
The ACTH secretion levels of AtT-20 cell culture was monitored on the supernatant of AtT-20 cells treated or not by increasing doses of compounds belonging to the family of halogenated salicylanilides chemicals.
1.25×10^4 AtT20 cells were seeded on polylysine-coated 96-well culture vessels on 150 μL of complete medium. After 24 hours, cells were treated with stock compounds to a final DMSO concentration of 0.5%. After 24 hours of treatment, cell culture supernatant was collected, cleared for 10 min at 1000×g at 4° C., diluted or not in assay buffer (Phoenix Peptide ACTH EIA EK-001-21) and frozen at −80° C. for subsequent processing according to the instructions of the kit's manufacturer.
For Cc1ccc(NC(=O)c2cc(I)cc(I)c2O)cc1 [Amb8477380], the “inhibition of ACTH at 25 μM, in words (FIG. 4, FIG. 5)” value (from here on “inhibition of ACTH at 25 μM, in words”) was “significant inhibition”. With O=C(Nc1ccc(Cl)cc1Cl)c1cc(I)cc(I)c1O [Amb8487151] the “inhibition of ACTH at 25 μM, in words” value was “significant inhibition”. For O=C(Nc1ccc(O)cc1)c1cc(I)ccc1O [Z69118571], the “inhibition of ACTH at 25 μM, in words” value was “ineffective”. In the case of CC(=O)Oc1c(I)cc(I)cc1C(=O)Nc1ccc(Cl)cc1 [Clioxanide, reference compound], the “inhibition of ACTH at 25 μM, in words” value is reported as “significant inhibition”. For O=C(CSc1ccccc1F)Nc1cccc(OCc2ccccn2)c1 [Z393438700], the “inhibition of ACTH at 25 μM, in words” value was “ineffective”. Cc1ccc(C(=O)c2cc(NC(=O)c3cc(I)cc(I)c3O)ccc2Cl)cc1 [Amb4103735] was tested, and the “inhibition of ACTH at 25 μM, in words” value was “significant inhibition”. For O=C(Nc1cc(Cl)cc(Cl)c1O)c1c(O)c(Cl)cc(Cl)c1Cl [Oxyclozanide, reference compound], the “inhibition of ACTH at 25 μM, in words” value was “significant inhibition”.

Same assay, conditions: Mus musculus, AtT20; 25 μM, 24-hour treatment, AtT-20 supernatant; read-out: ACTH secretion % of control (DMSO) at 25 μM
With Cc1ccc(NC(=O)c2cc(I)cc(I)c2O)cc1 [Amb8477380] the activity at 25 µM was 66%. Compound O=C(Nc1ccc(Cl)cc1Cl)c1cc(I)cc(I)c1O [Amb8487151] has an activity at 25 µM of 44%. Compound O=C(Nc1ccc(O)cc1)c1cc(I)ccc1O [Z69118571] has an activity at 25 µM of 101%. In the case of CC(=O)Oc1c(I)cc(I)cc1C(=O)Nc1ccc(Cl)cc1 [Clioxanide, reference compound], the activity at 25 µM is reported as 57%. With O=C(CSc1ccccc1F)Nc1cccc(OCc2ccccn2)c1 [Z393438700] the activity at 25 µM was 92%. Cc1ccc(C(=O)c2cc(NC(=O)c3cc(I)cc(I)c3O)ccc2Cl)cc1 [Amb4103735] was tested, and the activity at 25 µM was 58%. In the case of O=C(Nc1cc(Cl)cc(Cl)c1O)c1c(O)c(Cl)cc(Cl)c1Cl [Oxyclozanide, reference compound], the activity at 25 µM is reported as 41%.

These compounds were tested against T1, Full length USP8 (USP8FL) (Homo sapiens, UniProt P40818) (assay: USP8FL (full length USP8) enzymatic inhibition, Ub-Rhodamine 110 hydrolysis in L-cysteine buffer). Conditions: USP8 FL 75 nM, Ub-Rho 0.1 μM, L-cysteine buffer; read-out: USP8FL inhbition IC50 [μM] (CI: Confidence Interval).
T1 construct: purchased BostonBiochem E-520
T1 sequence (P40818 1-1118): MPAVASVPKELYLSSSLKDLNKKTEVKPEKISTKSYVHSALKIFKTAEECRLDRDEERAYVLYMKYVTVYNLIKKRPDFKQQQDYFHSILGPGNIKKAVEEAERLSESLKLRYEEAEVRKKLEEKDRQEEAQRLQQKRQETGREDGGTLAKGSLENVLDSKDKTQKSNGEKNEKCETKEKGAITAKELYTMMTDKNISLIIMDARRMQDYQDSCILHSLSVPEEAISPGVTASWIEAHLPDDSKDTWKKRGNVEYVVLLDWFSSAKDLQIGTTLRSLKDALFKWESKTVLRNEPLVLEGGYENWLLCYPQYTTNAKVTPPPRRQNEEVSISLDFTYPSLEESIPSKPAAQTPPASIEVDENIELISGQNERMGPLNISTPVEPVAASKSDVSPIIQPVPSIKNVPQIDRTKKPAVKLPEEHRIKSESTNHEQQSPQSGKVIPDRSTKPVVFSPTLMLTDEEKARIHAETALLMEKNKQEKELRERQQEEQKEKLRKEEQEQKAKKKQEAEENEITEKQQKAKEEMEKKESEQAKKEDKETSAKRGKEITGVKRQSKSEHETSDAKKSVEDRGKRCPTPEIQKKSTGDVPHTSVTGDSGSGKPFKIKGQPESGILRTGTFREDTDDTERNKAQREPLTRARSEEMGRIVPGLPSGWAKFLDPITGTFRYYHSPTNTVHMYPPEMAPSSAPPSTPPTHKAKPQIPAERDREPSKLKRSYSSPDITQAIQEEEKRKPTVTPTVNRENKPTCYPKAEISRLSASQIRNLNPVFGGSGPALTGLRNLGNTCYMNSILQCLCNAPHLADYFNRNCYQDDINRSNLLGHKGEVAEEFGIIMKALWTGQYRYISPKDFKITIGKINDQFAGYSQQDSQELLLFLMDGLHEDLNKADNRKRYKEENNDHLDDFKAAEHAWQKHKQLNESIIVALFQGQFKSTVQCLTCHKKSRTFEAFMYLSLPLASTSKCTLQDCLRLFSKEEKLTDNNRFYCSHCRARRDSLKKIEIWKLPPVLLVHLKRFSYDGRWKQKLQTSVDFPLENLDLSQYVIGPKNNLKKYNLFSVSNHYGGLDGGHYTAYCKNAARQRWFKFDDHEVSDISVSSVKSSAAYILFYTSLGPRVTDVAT
Format: biochemical
Procedure: USP8 FL (USP8 Full Length) was incubated at a concentration of 75 nM in the presence of Ub-Rho (UBIQUIGENT ref. 60-0117-050) at a final concentration of 0.1 μM, in conditions ensuring linearity of enzyme activity throughout the assay in a specific buffer. Compounds were added to the reaction mix at different doses just before the substrate. The enzymatic reaction kinetics were monitored by measuring fluorescence elicited by the hydrolysis of Ub-Rho over 30 min.
In this setup, an in-house purified catalytic domain of USP8 (USP8CD) was used at a concentration of 80 nM in the presence of the artificial substrate Ubiquitin-Rhodamine 110 (Ub-Rho) (ref: 60-0117-050 Ubiquigent) at a final concentration of 0.1 μM, in conditions ensuring linearity of enzyme activity throughout the assay incubation time. Enzymatic assay was performed in a Tris HCl buffer (40 mM Tris HCl pH 7.4, Ovalbumine 0.5 mg/ml, Cysteine HCl 5.5 mM). Compounds to be tested were added to the reaction mix and incubated with enzyme for 20 min, before the substrate. The enzymatic reaction kinetics were monitored by measuring fluorescence elicited by the hydrolysis of the peptidyl Ub-Rho over 30 minutes. The negative control was the solvent DMSO at 1%.
Full length USP8 (USPBFL) (BostonBiochem ref. E-520) were used at a concentration of 75 nM in the presence of a ubiquitin substrate, i.e., the Ub-Rhodamine 110 (Ub-Rho) (Ubiquigent ref. 60-0117-050) at a final concentration of 0.1 μM. Enzymatic assays were performed as described for USP8-CD except that USP-FL was used at a concentration of 75 nM. The compounds were used at a final concentration of 0.1, 1, 5, 10, 50 and 100 μM in DMSO 0.5%. The USP8 catalytic activity was monitored both before adding the substrate (TO) and after twenty minutes of incubation at room temperature (Final Time TF). The enzymatic reaction kinetics were monitored by measuring fluorescence elicited by the hydrolysis of the Ub-Rho bound over 30 minutes.
For Cc1ccc(NC(=O)c2cc(I)cc(I)c2O)cc1 [Amb8477380], the IC50 was 14.6 µM. Work on O=C(Nc1ccc(Cl)cc1Cl)c1cc(I)cc(I)c1O [Amb8487151] yielded an IC50 of 4.34 µM. For O=C(Nc1ccc(O)cc1)c1cc(I)ccc1O [Z69118571], the IC50 was > 100 µM. For CC(=O)Oc1c(I)cc(I)cc1C(=O)Nc1ccc(Cl)cc1 [Clioxanide, reference compound], the IC50 was 33.2 µM. O=C(CSc1ccccc1F)Nc1cccc(OCc2ccccn2)c1 [Z393438700] was tested, and the IC50 was > 40 µM. Compound Cc1ccc(C(=O)c2cc(NC(=O)c3cc(I)cc(I)c3O)ccc2Cl)cc1 [Amb4103735] has an IC50 of 3.41 µM. For O=C(Nc1cc(Cl)cc(Cl)c1O)c1c(O)c(Cl)cc(Cl)c1Cl [Oxyclozanide, reference compound], the IC50 was 7.68 µM.

The compounds below were run on AtT-20 cells (assay: Cytotoxicity towards AtT-20 cells (PrestoBlue viability assay)). Conditions: 25 μM, 24-hour exposure.
With Cc1ccc(NC(=O)c2cc(I)cc(I)c2O)cc1 [Amb8477380] the “AtT-20 cell viability (PrestoBlue assay) % of control (DMSO) at 25 μM Mean (SD)” value was 93.51 (11.59) %. For O=C(Nc1ccc(Cl)cc1Cl)c1cc(I)cc(I)c1O [Amb8487151], the “AtT-20 cell viability (PrestoBlue assay) % of control (DMSO) at 25 μM Mean (SD)” value was 89.58 (10.11) %. For O=C(Nc1ccc(O)cc1)c1cc(I)ccc1O [Z69118571], the “AtT-20 cell viability (PrestoBlue assay) % of control (DMSO) at 25 μM Mean (SD)” value was 106.7 (20.87) %. In the case of CC(=O)Oc1c(I)cc(I)cc1C(=O)Nc1ccc(Cl)cc1 [Clioxanide, reference compound], the “AtT-20 cell viability (PrestoBlue assay) % of control (DMSO) at 25 μM Mean (SD)” value is reported as 94.21 (12.30) %. For O=C(CSc1ccccc1F)Nc1cccc(OCc2ccccn2)c1 [Z393438700], the “AtT-20 cell viability (PrestoBlue assay) % of control (DMSO) at 25 μM Mean (SD)” value was 101.1 (16.04) %. For Cc1ccc(C(=O)c2cc(NC(=O)c3cc(I)cc(I)c3O)ccc2Cl)cc1 [Amb4103735], the “AtT-20 cell viability (PrestoBlue assay) % of control (DMSO) at 25 μM Mean (SD)” value was 109.4 (18.18) %. With O=C(Nc1cc(Cl)cc(Cl)c1O)c1c(O)c(Cl)cc(Cl)c1Cl [Oxyclozanide, reference compound] the “AtT-20 cell viability (PrestoBlue assay) % of control (DMSO) at 25 μM Mean (SD)” value was 98.08 (14.38) %.
